“Also recorded” adds a separate entry of the source. Counter-ions that a name gives are not always drawn. Square brackets hold non-standard residues; d marks the D form. Peptide text beside a SMILES is read from it. * marks the point of attachment. X1 = CC(C)[C@@H](C(=O)*)N(C)CCCCCC(=O)NCCCC[C@H](N)C(=O)O; Dolaproine = CO[C@@H]([C@@H]1CCCN1)[C@@H](C)C(=O)O; Dil = CC[C@H](C)[C@H](NC)[C@@H](CC(=O)O)OC; X5 = C[C@@H](N*)[C@@H](O)c1ccccc1; Oxazinan2yl(1,2) = C1CCN(*)OC1; NMeV = CN[C@H](C(=O)O)C(C)C
Assays:
Caco-2 cells = assay: Caco-2 flux assay for cell permeability; type: in vitro ADME; conditions: 2 hours, B to A
Experimental: (§1) The cell permeability of a substance can be investigated by means of in vitro testing in a flux assay using Caco-2 cells [M. D. Troutman and D. R. Thakker, Pharm. Res. 20 (8), 1210-1224 (2003)]. For this purpose, the cells were cultured for 15-16 days on 24-well filter plates. For the determination of permeation, the respective working example was applied in a HEPES buffer to the cells either apically (A) or basally (B) and incubated for 2 hours. After 0 hours and after 2 hours, samples were taken from the cis and trans compartments. The samples were separated by HPLC (Agilent 1200, Böblingen, Germany) using reverse phase columns. The HPLC system was coupled via a Turbo Ion Spray Interface to a Triple Quadropol mass spectrometer API 4000 (Applied Biosystems Applera, Darmstadt, Germany). The permeability was evaluated on the basis of a Papp value, which was calculated using the formula published by Schwab et al. [D. Schwab et al., J. Med. Chem. 46, 1716-1725 (2003)].

tubulin = assay: Fluorescence-based microtubule (tubulin) polymerization assay; type: biochemical; conditions: for reduction in the polymerization rate: 1 μM
Experimental: Tubulin polymerization was investigated using the “Fluorescence-based Microtubule Polymerisation Assay Kit” from Cytoskeleton (Denver, Colo., USA; order number: BK011). With this assay, GTP is added to unpolymerized tubulin, allowing polymerization to take place spontaneously. The assay is based on the binding of the fluorophore 4′,6-di-amidino-2-phenylindole (DAPI) to tubulin. Free and bound DAPI can be differentiated on the basis of different emission spectra.
[…] In addition to the buffer control, paclitaxel, with a polymerization-increasing effect, and vinblastin, with a polymerization inhibiting effect, were run additionally as assay controls. Measurement was carried out using 96-well plates with a half base area. The kinetics of the tubulin polymerization were monitored in a Fluorimeter at 37° C. for 1 hour. The excitation wavelength was 355 nm, and emission was monitored at 460 nm. For the region of linear increase within the first 10 minutes, a calculation was made of the change in fluorescence per minute (ΔF/min), which represents the polymerization rate of the microtubuli. The potency of the test substances was quantified on the basis of their respective reduction of the polymerization rate.
The reduction in the tubulin polymerization rate occurs in dependence on the concentration of the test substance added.

[1] = Pharmacokinetics in the HT29 tumour model, non-transfected tumours; type: in vivo; conditions: after i.v. 16 mg/kg of Example 5; animals with nontransfected tumours
Experimental: Following intravenous administration of 16 mg/kg of Example 5, the plasma concentrations and tumour concentrations of Example 5 and also of potential metabolites such as, for example, of Example 64 were measured. […] In contrast, the AUC in the tumour in the nontransfected animals was about 8 times lower than in the transfected animals.
The measurement of the compound from Example 64 in plasma and tumour took place following precipitation of the proteins with methanol, by means of high-pressure liquid chromatography (HPLC) coupled to a tandem mass spectrometer (MS).
For the processing of 100 μL of plasma, it was admixed with 400 μL of methanol and 10 μL of internal standard (ISTD, 50 ng/mL in methanol) and shaken for 10 seconds. After centrifuging for 5 minutes at 16 000 g, 250 μL of supernatant were transferred to an autosampler vial, which was made up with 250 μL of ammonium acetate buffer (AAC, 10 mM, pH 6.8) and shaken again.
For the processing of a tumour, it was admixed with 4 times the amount of methanol. […] After again being shaken, the tumour sample was ready for measurement.
The measurement of both matrix samples took place, lastly, on the HPLC-coupled, atmospheric pressure ionization/tandem mass spectrometer by means of a Turbo Ion Spray Interface (TISP) on an API4000 instrument from SCIEX. The m/z transitions measured were as follows: […]

[2] = Caco-2 flux assay for cell permeability; type: in vitro ADME; conditions: human, Caco-2 cells, B to A
Experimental: as §1

Mesothelin = Mesothelin (Homo sapiens, UniProt Q13421-3 37-598, GPI anchor); assay: cell-based or functional assay
[3] = concentration of toxophore 1 μM
[4] = concentration of toxophore 10 μM

Molecule	Papp (B-A) (Caco-2 cells) [×10⁻⁶ cm/s]	Tubulin polymerization in the presence of toxophore in [%]. Tubulin polymerization rate at 1 μM MMAF set at 100% (tubulin; [3]) [%]	Tubulin polymerization in the presence of toxophore in [%]. Tubulin polymerization rate at 1 μM MMAF set at 100% (tubulin; [4]) [%]	other results
CC[C@H](C)[C@@H]([C@@H](CC(=O)N1CCC[C@H]1[C@H](OC)[C@@H](C)C(=O)N[C@@]1(C(=O)N2CCCCO2)C[C@@H]1c1ccccc1)OC)N(C)C(=O)[C@@H](NC(=O)[C@H](C(C)C)N(C)CCCC(=O)NNC(=O)CCCCCN1C(=O)CC(SC[C@H](N)C(=O)O)C1=O)C(C)C (stereo partly drawn) [Example 64, N-(4-{2-[6-(3-{[(2R)-2-Amino-2-carboxyethyl]sulphanyl}-2,5-dioxopyrrolidin-1-yl)hexanoyl]hydrazino}-4-oxobutyl)-N-methyl-L-valyl-N-[(3R,4S,5S)-3-methoxy-1-{(2S)-2-[(1R,2R)-1-methoxy-2-methyl-3-{[(1S,2R)-1-(1,2-oxazinan-2-ylcarbonyl)-2-phenylcyclopropyl]amino}-3-oxopropyl]pyrrolidin-1-yl}-5-methyl-1-oxoheptan-4-yl]-N-methyl-L-valinamide]	0.25	120		reduction in the polymerization rate (tubulin): 41%; exposure in plasma [1]: identical to the exposure in plasma in animals with transfected tumours
CC[C@H](C)[C@@H]([C@@H](CC(=O)N1CCC[C@H]1[C@H](OC)[C@@H](C)C(=O)N[C@@H](Cc1c[nH]c2ccccc12)C(=O)NCc1ccccc1)OC)N(C)C(=O)[C@@H](NC(=O)[C@H](C(C)C)N(C)CCCC(=O)NNC(=O)CCCCCN1C(=O)CC(SC[C@H](N)C(=O)O)C1=O)C(C)C (stereo partly drawn) [Example 68, N-(4-{2-[6-(3-{[(2R)-2-Amino-2-carboxyethyl]sulphanyl}-2,5-dioxopyrrolidin-1-yl)hexanoyl]hydrazino}-4-oxobutyl)-N-methyl-L-valyl-N-[(3R,4S,5S)-1-{(2S)-2-[(1R,2R)-3-{[(2S)-1-(benzylamino)-3-(1H-indol-3-yl)-1-oxopropan-2-yl]amino}-1-methoxy-2-methyl-3-oxopropyl]pyrrolidin-1-yl}-3-methoxy-5-methyl-1-oxoheptan-4-yl]-N-methyl-L-valinamide]	0.7		45	
CC[C@H](C)[C@@H]([C@@H](CC(=O)N1CCC[C@H]1[C@H](OC)[C@@H](C)C(=O)N[C@@H](Cc1c[nH]c2ccccc12)C(=O)N1CCCCO1)OC)N(C)C(=O)[C@@H](NC(=O)[C@H](C(C)C)N(C)CCCCCC(=O)NCCCC[C@H](N)C(=O)O)C(C)C [Example 105, N-(6-{[(5S)-5-Amino-5-carboxypentyl]amino}-6-oxohexyl)-N-methyl-L-valyl-N-[(3R,4S,5S)-1-{(2S)-2-[(1R,2R)-3-{[(2S)-3-(1H-indol-3-yl)-1-(1,2-oxazinan-2-yl)-1-oxopropan-2-yl]amino}-1-methoxy-2-methyl-3-oxopropyl]pyrrolidin-1-yl}-3-methoxy-5-methyl-1-oxoheptan-4-yl]-N-methyl-L-valinamide trifluoroacetate] (X1-V[Dil][Dolaproine]W-{Oxazinan2yl(1,2)})	0.2	45	1	
CC[C@H](C)[C@@H]([C@@H](CC(=O)N1CCC[C@H]1[C@H](OC)[C@@H](C)C(=O)N[C@@H](Cc1c[nH]c2ccccc12)C(=O)O)OC)N(C)C(=O)[C@@H](NC(=O)[C@H](C(C)C)N(C)CCCCCC(=O)NCCCC[C@H](N)C(=O)O)C(C)C [Example 106, N-(6-{[(5S)-5-Amino-5-carboxypentyl]amino}-6-oxohexyl)-N-methyl-L-valyl-N-[(3R,4S,5S)-1-{(2S)-2-[(1R,2R)-3-{[(1S)-1-carboxy-2-(1H-indol-3-yl)ethyl]amino}-1-methoxy-2-methyl-3-oxopropyl]pyrrolidin-1-yl}-3-methoxy-5-methyl-1-oxoheptan-4-yl]-N-methyl-L-valinamide] (X1-V[Dil][Dolaproine]W-OH)	0.1	80	14	
CC[C@H](C)[C@@H]([C@@H](CC(=O)N1CCC[C@H]1[C@H](OC)[C@@H](C)C(=O)N[C@@H](Cc1ccc(O)cc1)C(=O)N1CCCCO1)OC)N(C)C(=O)[C@@H](NC(=O)[C@H](C(C)C)N(C)CCCCCC(=O)NCCCC[C@H](N)C(=O)O)C(C)C [Example 117, N-(6-{[(5S)-5-Amino-5-carboxypentyl]amino}-6-oxohexyl)-N-methyl-L-valyl-N-[(3R,4S,5S)-1-{(2S)-2-[(1R,2R)-3-{[(2S)-3-(4-hydroxyphenyl)-1-(1,2-oxazinan-2-yl)-1-oxopropan-2-yl]amino}-1-methoxy-2-methyl-3-oxopropyl]pyrrolidin-1-yl}-3-methoxy-5-methyl-1-oxoheptan-4-yl]-N-methyl-L-valinamide trifluoroacetate] (X1-V[Dil][Dolaproine]Y-{Oxazinan2yl(1,2)})	0.15	88	21	
CC[C@H](C)[C@@H]([C@@H](CC(=O)N1CCC[C@H]1[C@H](OC)[C@@H](C)C(=O)N[C@H](C)[C@@H](O)c1ccccc1)OC)N(C)C(=O)[C@@H](NC(=O)[C@@H](NC)C(C)C)C(C)C [MMAE, monomethylauristatin E, reference compound] (H-[NMeV]V[Dil][Dolaproine]-X5)				Papp B→A at 2 h [2]: 7.3 ×10⁻⁶ cm/s
CC[C@H](C)[C@@H]([C@@H](CC(=O)N1CCC[C@H]1[C@H](OC)[C@@H](C)C(=O)N[C@@H](Cc1ccccc1)C(=O)O)OC)N(C)C(=O)[C@@H](NC(=O)[C@@H](NC)C(C)C)C(C)C [MMAF, Monomethylauristatin F, reference compound] (H-[NMeV]V[Dil][Dolaproine]F-OH)	7.3	100	34	reduction in the polymerization rate (tubulin): 40-45%; effect on tubulin polymerization (tubulin; 100 μM): complete cessation of polymerization; also recorded: inhibited completely; Tubulin polymerization in the presence of toxophore in [%]. Tubulin polymerization rate at 1 μM MMAF set at 100% (tubulin; concentration of toxophore 100 μM): 0%
Example 71 immunoconjugate (MF-Ta ADC) (antibody, human IgG1, lambda, V domains shown, auristatin linker-toxophore on cysteine sulphur) VH: QVELVQSGAEVKKPGESLKISCKGSGYSFTSYWIGWVRQAPGKGLEWMGIIDPGDSRTRYSPSFQGQVTISADKSISTAYLQWSSLKASDTAMYYCARGQLYGGTYMDGWGQGTLVTVSS VL: DIALTQPASVSGSPGQSITISCTGTSSDIGGYNSVSWYQQHPGKAPKLMIYGVNNRPSGVSNRFSGSKSGNTASLTISGLQAEDEADYYCSSYDIESATPVFGGGTKLTVLG				HT29 meso+ IC50 [nM] (MTT proliferation) (Mesothelin): 22 nM

Reference: patent US20130122024A1, “NEW BINDER-DRUG CONJUGATES (ADCS) AND USE THEREOF” (Bayer Intellectual Property GmbH, priority 2011, published 2013)
